The series deals with mouse (Albino Swiss CD-1). Description: Acute toxicity (LD50) in mouse. Type of series: in vivo. Conditions: single administration. As to the method: Acute toxicity has been determined in the mouse (Albino Swiss CD-1, body weight 30 g). Mice were orally treated, or intravenously injected, with single administration of increasing doses of the test substance to identify the dose causing 50% mortality. Mortality occurred within 30 min after the administration and survival after 24 h. The acute toxicity (LD50) was then assessed.
The acute toxicity of the tested compound PST 3093 was determined in the mouse (Albino Swiss CD-1, body weight 30 g). Compound PST 3093 was orally administered or intravenously injected at increasing doses to identify the dose causing 50% mortality. Mortality occurred within 30 min after the administration and survival after 24 h.

As for `C[C@]12CCC(=NOCC(=O)O)CC1[C@H](O)CC1C2CC[C@]2(C)C(=O)CCC12` (stereo partly drawn) [PST 3093, (E,Z)-[(6-beta-hydroxy-17-oxoandrostan-3-ylidene)amino]oxyacetic acid], the LD50 (in general, the dose expected to kill half of the subjects tested) is above 250 mg/kg (i.v.) and above 200 mg/kg (os (oral)).

The values are drawn from patent US12343350B2, “Istaroxime-containing intravenous formulation for the treatment of acute heart failure (AHF)” (Windtree Therapeutics, Inc., priority 2019, dated 2025).
